{"source": "patent US8685929B2", "about": "“Detecting CYP24 expression level as a marker for predisposition to cancer” (The Regents of the University of California, priority 1999, dated 2014)", "key": {"[1]": {"system": "CYP24 gene expression in MCF7 breast cancer cells", "assay": "RT-PCR of CYP24 gene expression in MCF7 breast cancer cells with induction by 1,25-dihydroxyvitamin D3", "type": "cell-based, human", "conditions": "MCF7 cells incubated with 10^-8M 1,25-dihydroxyvitamin D3 vs vehicle control (ethanol); FIG. 3A", "description": "(§1) FIG. 3 illustrates expression of CYP24, VDR and ZNF217 genes in human breast cancer cell lines and tumors with and without induction by 1,25-dihydroxyvitamin D3 evaluated by RT-PCR. (a) Time course of induction of CYP24 gene expression in MCF7 breast cancer cells incubated with 10^−8M 1,25-dihydroxyvitamin D3 and vehicle control (ethanol, EtOH). (b) Gene expression in two breast cancer tumors, S21 and S59. (c) Gene expression in the BT474 cell line. Cells were incubated with 10^−8M 1,25-dihydroxyvitamin D3, as described in (a).\n(§2) Previously, CYP24 had been discounted as a candidate oncogene because it was not found to be transcribed in the breast cancer cell line, BT474 (Collins et al. (1998) Proc. Natl. Acad. Sci. USA 95: 8703-8708). However, re-evaluation of expression of CYP24 in cell lines and tumors was warranted because of its position at the peak of the copy number profile and because of the existing knowledge of its function. Therefore we examined expression levels of CYP24 and the vitamin D receptor (VDR), which controls CYP24 expression by RT-PCR using the primers listed in Table 1. […] Furthermore, expression of CYP24 and VDR was detected in two breast tumors S21 and S59 (FIG. 3B). […] Only low level expression of VDR was found in this cell line, most likely accounting for the failure to detect expression of CYP24 in BT474 without addition of 1,25-dihydroxyvitamin-D3. […]"}, "[2]": {"system": "CYP24 gene expression in BT474 cell line", "assay": "RT-PCR of CYP24 gene expression in the BT474 cell line with induction by 1,25-dihydroxyvitamin D3", "type": "cell-based, human", "conditions": "BT474 cells, 10^-8M 1,25-dihydroxyvitamin D3 added to the culture medium; FIG. 3C", "description": "as §1, §2"}}, "data": [{"smiles": "C=C1/C(=C\\C=C2/CCC[C@]3(C)[C@@H]([C@H](C)CCCC(C)(C)O)CC[C@@H]23)C[C@@H](O)C[C@@H]1O", "note": "[1,25-dihydroxyvitamin-D3]", "values": [{"measurement": "expression of CYP24 (RT-PCR)", "setting": "[1]", "result": "higher levels of expression of CYP24 were induced"}, {"measurement": "expression of CYP24 (RT-PCR)", "setting": "[2]", "result": "CYP24 expression was not detected without addition of 1,25-dihydroxyvitamin-D3"}]}]}
